Measured values taken from ChEMBL document CHEMBL5385928, “Sokotrasterol Sulfate Suppresses IFN-γ-Induced PD-L1 Expression by Inhibiting JAK Activity” (J Nat Prod, 2024).
Active and inactive are the calls of the source. No cut-off for these calls is given here.

Key:
[1] = biological target: T1, Tyrosine-protein kinase JAK2 (Homo sapiens, UniProt O60674); conditions: BXPC-3, Lysate, dose 10.0 µM, time 1.0 hrs
[2] = biological target: T1, Tyrosine-protein kinase JAK2; experiment: Inhibition of N-terminal His-tagged human JAK2 (826 to 1132 residues) expressed in Sf21 cells incubated for 30 mins in presence of ATP by LANCE Ultra assay
[3] = biological target: Transcription factor p65 (Homo sapiens) (UniProt Q04206); experiment: Inhibition of p65 phosphorylation in human A549 cells at 2.5 to 10 uM preincubated with compound for 1 hrs followed by IFN-gamma stimulation for 1 hrs by Western blot analysis; format: cell-based; conditions: dose 2.5-10 µM, time 2.0 hrs
Chain of Transcription factor p65 (Homo sapiens) (Q04206 whole entry): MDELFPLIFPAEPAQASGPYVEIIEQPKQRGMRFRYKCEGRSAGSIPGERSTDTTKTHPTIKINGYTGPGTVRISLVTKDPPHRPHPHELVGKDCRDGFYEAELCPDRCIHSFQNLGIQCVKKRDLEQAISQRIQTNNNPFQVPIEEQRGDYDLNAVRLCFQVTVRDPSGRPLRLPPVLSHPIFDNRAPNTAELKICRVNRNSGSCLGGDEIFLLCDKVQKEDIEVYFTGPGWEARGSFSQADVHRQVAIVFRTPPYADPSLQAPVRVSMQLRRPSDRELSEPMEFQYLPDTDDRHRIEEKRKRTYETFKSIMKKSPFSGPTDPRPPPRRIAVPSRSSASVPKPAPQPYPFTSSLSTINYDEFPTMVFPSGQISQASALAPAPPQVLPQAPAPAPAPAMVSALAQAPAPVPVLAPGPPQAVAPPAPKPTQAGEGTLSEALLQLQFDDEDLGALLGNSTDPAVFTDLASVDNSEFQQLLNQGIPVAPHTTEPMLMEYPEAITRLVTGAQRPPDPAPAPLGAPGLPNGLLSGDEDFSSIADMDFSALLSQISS

[4] = system: B16-OVA melanoma cell; experiment: Sensitization of mouse B16-OVA melanoma cells to OT-1 T cells assessed as reduction in cell viability preincubated with compound in presence of mouse IFN-gamma for 24 hrs followed by OT-1 T cell addition for 24 hrs by CellTiter-Glo assay; format: functional, cell-based; conditions: dose 2.5-10 µM
[5] = biological target: Non-receptor tyrosine-protein kinase TYK2 (Homo sapiens, UniProt P29597); experiment: Inhibition of N-terminal GST-tagged human TYK2 (871to 1187 residues) expressed in Sf21 cells incubated for 30 mins in presence of ATP by LANCE Ultra assay
Chain of Non-receptor tyrosine-protein kinase TYK2 (P29597 whole entry, the tested form may be a part): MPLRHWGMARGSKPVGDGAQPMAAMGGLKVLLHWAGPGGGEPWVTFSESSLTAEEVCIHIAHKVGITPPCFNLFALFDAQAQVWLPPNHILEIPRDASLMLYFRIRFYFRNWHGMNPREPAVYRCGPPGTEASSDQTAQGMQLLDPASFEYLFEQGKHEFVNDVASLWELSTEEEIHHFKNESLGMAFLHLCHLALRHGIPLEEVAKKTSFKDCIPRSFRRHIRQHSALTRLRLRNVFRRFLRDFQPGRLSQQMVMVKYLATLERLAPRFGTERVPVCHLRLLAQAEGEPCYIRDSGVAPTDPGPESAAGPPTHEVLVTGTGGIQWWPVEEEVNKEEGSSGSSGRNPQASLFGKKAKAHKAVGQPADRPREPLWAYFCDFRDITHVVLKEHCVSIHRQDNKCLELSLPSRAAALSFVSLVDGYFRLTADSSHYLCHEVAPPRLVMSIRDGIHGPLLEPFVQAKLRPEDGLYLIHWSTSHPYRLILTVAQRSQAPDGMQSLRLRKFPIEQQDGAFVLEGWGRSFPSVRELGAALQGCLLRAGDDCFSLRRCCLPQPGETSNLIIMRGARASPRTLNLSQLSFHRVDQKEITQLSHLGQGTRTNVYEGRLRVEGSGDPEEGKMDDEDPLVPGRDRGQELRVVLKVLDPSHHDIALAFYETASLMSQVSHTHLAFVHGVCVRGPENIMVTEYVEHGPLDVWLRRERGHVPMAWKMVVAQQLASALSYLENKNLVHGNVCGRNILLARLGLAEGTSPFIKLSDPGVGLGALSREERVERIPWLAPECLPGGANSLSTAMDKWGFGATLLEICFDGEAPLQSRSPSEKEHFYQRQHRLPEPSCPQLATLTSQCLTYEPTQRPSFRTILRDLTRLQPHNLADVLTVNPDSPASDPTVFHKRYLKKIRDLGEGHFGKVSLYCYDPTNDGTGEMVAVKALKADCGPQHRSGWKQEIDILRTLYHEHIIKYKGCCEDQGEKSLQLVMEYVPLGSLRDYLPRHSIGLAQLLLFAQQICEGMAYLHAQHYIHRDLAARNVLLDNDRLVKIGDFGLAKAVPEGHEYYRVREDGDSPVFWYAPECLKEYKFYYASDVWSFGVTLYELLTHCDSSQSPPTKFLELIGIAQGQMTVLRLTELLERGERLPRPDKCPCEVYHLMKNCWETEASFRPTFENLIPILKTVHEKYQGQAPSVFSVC

[6] = system: BXPC-3; experiment: Reversal of IFN-gamma induced cell death in human BXPC-3 cells at 2.5 to 10 uM incubated for 48 hrs by microscopic analysis; format: functional, cell-based; conditions: dose 2.5-10 µM
[7] = system: B16-OVA melanoma cell; experiment: Sensitization of mouse B16-OVA melanoma cells to OT-1 T cells assessed as increase in antigen specific T-cell killing at 2.5 to 10 uM preincubated with compound in presence of mouse IFN-gamma for 24 hrs followed by OT-1 T cell addition for 24 hrs by crystal violet staining based analysis; format: functional; conditions: dose 2.5-10 µM, time 48.0 hrs
[8] = biological target: T2, Tyrosine-protein kinase JAK3 (Homo sapiens, UniProt P52333); experiment: Inhibition of N-terminal His-tagged human JAK3 (795 to 1124 residues) expressed in Sf21 cells incubated for 30 mins in presence of ATP by LANCE Ultra assay
T2 sequence (P52333 whole entry): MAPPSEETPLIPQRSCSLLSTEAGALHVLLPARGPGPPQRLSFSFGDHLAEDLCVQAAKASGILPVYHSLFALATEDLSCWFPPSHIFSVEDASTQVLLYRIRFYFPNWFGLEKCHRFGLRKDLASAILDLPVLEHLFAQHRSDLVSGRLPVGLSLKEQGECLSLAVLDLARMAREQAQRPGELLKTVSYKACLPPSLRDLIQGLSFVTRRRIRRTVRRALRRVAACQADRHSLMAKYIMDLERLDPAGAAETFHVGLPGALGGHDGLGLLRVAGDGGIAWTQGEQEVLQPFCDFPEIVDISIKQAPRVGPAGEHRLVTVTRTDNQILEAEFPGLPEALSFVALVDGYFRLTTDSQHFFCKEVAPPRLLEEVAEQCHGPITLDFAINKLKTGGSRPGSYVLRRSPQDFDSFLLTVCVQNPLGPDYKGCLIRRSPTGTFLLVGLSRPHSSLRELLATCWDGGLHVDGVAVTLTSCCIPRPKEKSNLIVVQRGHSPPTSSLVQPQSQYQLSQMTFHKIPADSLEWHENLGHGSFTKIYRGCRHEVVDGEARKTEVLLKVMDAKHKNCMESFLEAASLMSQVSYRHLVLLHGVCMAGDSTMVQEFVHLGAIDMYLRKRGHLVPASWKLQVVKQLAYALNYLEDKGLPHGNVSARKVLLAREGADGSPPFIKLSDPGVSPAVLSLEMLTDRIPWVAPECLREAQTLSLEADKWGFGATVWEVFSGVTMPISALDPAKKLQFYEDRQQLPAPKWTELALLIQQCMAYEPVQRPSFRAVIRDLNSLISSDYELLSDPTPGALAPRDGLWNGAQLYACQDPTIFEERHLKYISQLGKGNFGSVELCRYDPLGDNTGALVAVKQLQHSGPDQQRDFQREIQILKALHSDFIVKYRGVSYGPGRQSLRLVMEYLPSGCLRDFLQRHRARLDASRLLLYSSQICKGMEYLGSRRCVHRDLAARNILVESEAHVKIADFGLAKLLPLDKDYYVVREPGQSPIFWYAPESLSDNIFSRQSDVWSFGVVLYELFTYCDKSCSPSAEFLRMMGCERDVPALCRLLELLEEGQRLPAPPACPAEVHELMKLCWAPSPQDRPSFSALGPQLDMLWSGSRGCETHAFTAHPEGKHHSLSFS

[9] = system: BXPC-3; experiment: Effect on cell death in human BXPC-3 cells at 2.5 to 10 uM incubated for 48 hrs by microscopic analysis; format: toxicity, cell-based; conditions: bxpc-3, 48 h, dose 2.5-10 µM
[10] = Inhibition of IFN-gamma induced PD-L1 protein expression in human SK-OV-3 cells incubated for 48 hrs by high-throughput flow cytometric analysis; conditions: SK-OV-3, 48 h
[11] = biological target: Transcription factor p65 (Homo sapiens) (UniProt Q04206); experiment: Inhibition of p65 phosphorylation in human SK-OV-3 cells at 2.5 to 10 uM preincubated with compound for 1 hrs followed by IFN-gamma stimulation for 1 hrs by Western blot analysis; format: cell-based; conditions: dose 2.5-10 µM, time 2.0 hrs
[12] = biological target: Transcription factor p65 (Homo sapiens) (UniProt Q04206); experiment: Inhibition of p65 phosphorylation in human BXPC-3 cells at 2.5 to 10 uM preincubated with compound for 1 hrs followed by IFN-gamma stimulation for 1 hrs by Western blot analysis; format: cell-based; conditions: dose 2.5-10 µM, time 2.0 hrs
[13] = Inhibition of IFN-gamma induced PD-L1 protein expression in human A549 cells incubated for 48 hrs by high-throughput flow cytometric analysis; conditions: A549, 48 h
[14] = Inhibition of IFN-gamma induced PD-L1 protein expression in human BXPC-3 cells incubated for 48 hrs by high-throughput flow cytometric analysis; conditions: BXPC-3, 48 h
[15] = system: BXPC-3; experiment: Effect on cell viability in human BXPC-3 cells at 2.5 to 10 uM incubated for 48 hrs by CellTiter-Glo assay; format: toxicity, cell-based; conditions: bxpc-3, 48 h, dose 2.5-10 µM

T1 sequence (O60674 whole entry, the tested form may be a part): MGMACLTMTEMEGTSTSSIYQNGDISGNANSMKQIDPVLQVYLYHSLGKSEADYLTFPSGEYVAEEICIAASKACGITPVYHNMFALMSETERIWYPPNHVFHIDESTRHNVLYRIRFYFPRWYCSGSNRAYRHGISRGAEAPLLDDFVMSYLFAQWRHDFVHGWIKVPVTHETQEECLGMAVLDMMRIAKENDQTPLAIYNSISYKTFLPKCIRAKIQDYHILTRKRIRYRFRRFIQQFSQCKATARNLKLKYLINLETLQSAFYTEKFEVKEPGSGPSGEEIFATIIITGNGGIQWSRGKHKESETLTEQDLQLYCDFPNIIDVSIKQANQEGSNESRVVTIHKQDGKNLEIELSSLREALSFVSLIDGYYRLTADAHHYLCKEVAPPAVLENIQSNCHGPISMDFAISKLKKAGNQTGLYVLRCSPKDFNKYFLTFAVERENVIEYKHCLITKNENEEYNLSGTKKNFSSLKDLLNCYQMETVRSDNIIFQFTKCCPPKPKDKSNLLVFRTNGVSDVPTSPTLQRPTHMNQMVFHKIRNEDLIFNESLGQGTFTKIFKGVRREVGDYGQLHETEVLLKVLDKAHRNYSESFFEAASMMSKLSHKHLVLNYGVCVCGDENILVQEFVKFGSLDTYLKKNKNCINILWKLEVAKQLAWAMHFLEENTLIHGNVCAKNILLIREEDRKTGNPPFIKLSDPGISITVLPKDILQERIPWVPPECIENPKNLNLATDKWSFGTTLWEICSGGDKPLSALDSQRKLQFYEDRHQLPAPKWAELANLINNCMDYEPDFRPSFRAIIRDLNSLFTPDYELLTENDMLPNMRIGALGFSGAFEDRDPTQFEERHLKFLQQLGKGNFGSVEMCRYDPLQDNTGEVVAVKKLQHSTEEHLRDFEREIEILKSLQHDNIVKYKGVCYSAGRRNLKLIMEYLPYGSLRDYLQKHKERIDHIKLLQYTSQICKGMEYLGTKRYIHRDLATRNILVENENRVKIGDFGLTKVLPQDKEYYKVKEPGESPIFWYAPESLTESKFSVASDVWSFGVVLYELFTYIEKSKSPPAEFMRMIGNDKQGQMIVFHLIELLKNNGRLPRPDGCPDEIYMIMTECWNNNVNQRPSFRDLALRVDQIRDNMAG

ΔTm [1]: 11 °C | IC50 [2]: 1.2 µM | inhibition [3]: inactive | IC50 [5]: 0.53 µM | IC50 [8]: 0.52 µM | IC50 [10]: 6.5 µM | inhibition [11]: inactive | inhibition [12]: inactive | IC50 [13]: 2.8 µM | IC50 [14]: 4.1 µM
SMILES: C/C(=C\C[C@@H](C)[C@H]1CC[C@H]2[C@@H]3C[C@H](OS(=O)(=O)[O-])[C@H]4C[C@H](OS(=O)(=O)[O-])[C@@H](OS(=O)(=O)[O-])C[C@]4(C)[C@H]3CC[C@]12C)C(C)(C)C(C)C.[Na+].[Na+].[Na+]
Activity [4]: Dose-Dependent Effect | Activity [6]: Active | Activity [7]: Active | Activity [9]: Non-Toxic | Activity [15]: Non-Toxic
